Measurements: patent publication US8628792B2, “Drug cores for sustained release of therapeutic agents” (Mati Therapeutics, Inc., priority 2007, dated 2014)
Values joined by “and” are separate entries in the source; they are usually repeats but may differ in a detail not shown here. Equal values may be shown once.

How the values were obtained:
[1] = In vitro elution study of drug cores (drug in silicone matrix in polyimide tube) in 7.4 pH buffer, HPLC; format: physicochemical; conditions: for Duration: calculated time when ~10% of drug remains
Source text: Drug cores as described above have been fabricated with different cross sectional sizes of 0.006 inches, 0.012 inches, and 0.025 inches, and drug concentrations of 5%, 10% and 20% in a silicone matrix. Theses drug cores can be made with a Syringe Tube and Cartridge Assembly, Mixing Latanoprost with Silicone, and Injecting the mixture into a polyimide tube which is cut to desired lengths and sealed. The length of the drug cores were approximately 0.80 to 0.95 mm, which for a diameter of 0.012 inches (0.32 mm) corresponds to total Latanoprost content in the drug cores of approximately 3.5 μg, 7 μg and 14 μg for concentrations of 5%, 10% and 20%, respectively.
Mix Latanoprost with Silicone. Prepare Latanoprost. Latanoprost is provided as a 1% solution in methylacetate. Place the appropriate amount of solution into a dish and using a nitrogen stream, evaporate the solution until only the Latanoprost remains. Place the dish with the Latanoprost oil under vacuum for 30 minutes. Combine Latanoprost with silicone. Prepare three different concentrations of Latanoprost (5%, 10% and 20%) in silicone Nusil 6385 and inject it into tubing of different diameters (0.006 in, 0.012 in and 0.025 inches) to generate 3×3 matrixes. The percent of Latanoprost to silicone is determined by the total weight of the drug matrix. Calculation: Weight of Latanoprost/(weight of Latanoprost+weight of silicone)×100=percent drug.
Inject tube. 1. Insert Cartridge and Polyimide tubes assembly into 1 ml syringe. 2. Add one drop of catalyst, (MED-6385 Curing Agent) in the syringe. 3. Force excess catalyst out of the polyimide tube with clean air. 4. Fill syringe with silicone drug matrix. 5, Inject tube with drug matrix until the tube is filled or the syringe plunger becomes too difficult to push. 6. Close off the distal end of the polyimide tube and maintain pressure until the silicone begins to solidify. 7. Allow to cure at room temperature for 12 hours. 8. Place under vacuum for 30 minutes. 9. Place tube in right size trim fixture (prepared in house to hold different size tubing) and cut drug inserts to length (0.80-0.95 mm).
Testing. Elution study (in vitro). 1. Place 10 plugs of same size and same concentration per centrifuge tube and add 1.5 ml of 7.4 pH buffer solution to it. 2. Change the solvent with fresh 7.4 pH buffer after appropriate time. 3. Take HPLC of the elutant at 210 nm with PDA detector 2996 using Sunfire C18, 3 mm×10 mm column (Waters Corporation, Milford, Mass.). Acetonitrile and water mixture is used for gradient elution. Calibration was done in house before and after each analysis, using in-house standards with precisely weighed concentration of Latanoprost. 4. Calculate the amount of drug release per day per device for different size tubings having different concentrations of Latanoprost. 5. Plot elution rate vs area and concentration for day 1 and day 14.

[2] = Inclusion (droplet) diameter in silicone/latanoprost cores, scanning electron micrographs; format: physicochemical; conditions: for average inclusion diameter and standard deviation: latanoprost-silicone mixture, n=40 inclusion; for average diameter of latanoprost droplets: silicone matrix
Procedure: A two part silicone formulation (MED6385, Nusil Technologies) was used in the preparation of a composite resin containing latanoprost, which was used to fill a section of polyimide sheathing. The sheathing containing the polymerized silicone incorporates discrete latanoprost domains, existing in the form of droplets of less than about 25 μm maximum diameter, within the matrix. Several experiments were conducted.
Part A of the MED6385 silicone formulation was mixed with 0.43 μL of Part B, the tin catalyst, using syringes, to bring about partial coagulation of the polymer over 30 minutes. Then, 37 mg of that material was mixed with a premixed solution of 0.144 additional catalyst and 13 mg latanoprost, and that mixture could be further mixed by sonication with an ultrasonic probe. The resulting mixture was transferred to a syringe needle connected to a HP7x syringe adapter, which is connected to an EFD pump, which is in turn connected to a compressed air system and the delivery pressure set to 40 psi. The silicone-latanoprost mixture is then extruded down the length (10 cm) of polyimide tubing (IWG High Performance Conductors, Inc.). When the viscous mixture reached the bottom of polyimide tubing, clamps were applied at the bottom of the tubing and at the top connection with the syringe adapter, then pressure is released and the tubing section removed. The clamped section of tubing was placed in a humidity chamber (Thunder Scientific) for curing at 40° C. and 80% relative humidity (RH) for approximately 16-24 hrs.
Scanning electron micrographs of the sheath containing the cured matrix, i.e., the filled precursor sheath, are shown in FIG. 15A-D at the magnifications indicated. The inserts were sectioned cryogenically. FIGS. 15A and 15B, respectively, show the insert cores wherein the extrusion was carried at 40° C. (A) or 25° C. (B).
The temperature of the mixture, and of the associated apparatus involved in filling the polyimide sheath was held at various temperatures during the injection process. Among the temperatures used were a slightly elevated temperature (40° C.), approximate room temperature (25° C.), and subambient temperatures, such as 0° C., −5° C., and −25° C. The subambient injection procedures are provided in this Example.
Scanning electron micrographs of the sheath containing the cured matrix, i.e., the filled precursor sheath, are shown in FIG. 15A-D at the magnifications indicated. The inserts were sectioned cryogenically. FIGS. 15C and 15D show the results of extrusions carried out at 0° C. and −25° C. respectively. They can be compared with FIGS. 15A and 15B that were carried out at ambient temperature (25° C.) or above (40° C.).
Measurements of average inclusion diameters, and standard deviation thereof, are as shown: […]

IOP = conditions: cited from earlier work
[3] = formulations A-D (silicone 4011 or 6385, 10-20% Latanoprost, 0-20% NaCl), non-sterile cores

## CC(C)OC(=O)CCC/C=C\C[C@@H]1[C@@H](CC[C@@H](O)CCc2ccccc2)[C@H](O)C[C@@H]1O [Latanoprost]
[1]; 7 μg core (10%, 0.32 mm diameter, 0.95 mm long), 10 to 20 days, compared with 14 μg core
  elution rate: comparable rates
[1]; 14 μg core (20%, 0.32 mm diameter, 0.95 mm long), from about 10 to 40 days
  elution rate: approximately 100 ng per day
[1]; 20% latanoprost in 6380 material with 2.5% crosslinker, 1, 4, 7 and 14 days, vs 6385 material
  relative elution rate: slightly lower elution rate
[1]; 20% latanoprost in 6380 material with 5% crosslinker, all time points
  relative elution rate: lowest elution rate
[1]; 20% latanoprost in 6385 material with 2.5% crosslinker, 1, 4, 7 and 14 days
  relative elution rate: highest elution rates
[1]; 6385 material with 5% latanoprost, all time periods
  relative elution rate: lowest rate
[1]; 6385 material with 5, 10, 20, 30 and 40% latanoprost, all samples, by 7 days
  elution rate: below 500 ng per day
[1]; 6385 material with 20% latanoprost, all time points
  elution rate, both ends open/2 compared with one end open: very close to the one end open data
[1]; 6385 material with 40% latanoprost, all time periods
  relative elution rate: highest rate
[1]; buffered saline elution system, initial
  initial elution of Latanoprost from plug: approximately 500 ng per day
[1]; buffered saline elution system, within 7-14 days, depending on initial concentration
  elution rate after dropping off: approximately 100 ng/day
[1]; day 1, 0.006 inch diameter core, exposed surface area approx 0.02 mm2
  Latanoprost released (elution rate): about 200 ng
[1]; day 1, 0.012 inch diameter core, exposed surface area approx 0.07 mm2
  Latanoprost released (elution rate): ~400 ng
[1]; day 1, 0.025 inch diameter core, exposed surface area approx 0.32 mm2
  Latanoprost released (elution rate): ~1200 ng
[1]; day 14, 0.006 inch diameter core, approx 0.02 mm2
  Latanoprost released (elution rate): about 25 ng
[1]; day 14, 0.012 inch (0.32 mm) diameter core, approx 0.07 mm2
  Latanoprost released (elution rate): ~100 ng
[1]; day 14, 0.025 inch diameter core, approx 0.32 mm2
  Latanoprost released (elution rate): ~300 ng
[1]; e-beam sterile core, 20% latanoprost in 6385, first day
  elution rate: about 450 ng/day
[1]; [3]
  elution rate by 3 weeks (21 days): about 100 ng per device per day
  initial elution rate: approximately 300 ng per device per day
[1]; non-sterile core, 20% latanoprost in 6385, 14 day
  elution rate: about 150 ng/day
[1]; non-sterile core, 20% latanoprost in 6385, days 4 and 7
  elution rate: about 400 ng/day
[1]; non-sterile core, 20% latanoprost in 6385, first day
  elution rate: ~1400 ng/day
[1]; sterile core, 20% latanoprost in 6385, 14 day
  elution rate: 200 ng/day
[1]; sterile core, 20% latanoprost in 6385, days 4 and 7
  elution rate: about 400 ng/day
[1]; total Latanoprost content 3.5 μg
  Duration: ~25 days
[1]; total Latanoprost content 7 μg
  Duration: ~45 days
[1]; total Latanoprost content 14 μg
  Duration: ~100 days
[2]; Cold extrusion (−5° C.)
  average inclusion diameter and standard deviation: 0.006±0.002 mm
[2]; MED6385 matrix, high pressure filling
  maximum diameter of latanoprost droplets: less than 25 μm
[2]; Room temp (22° C.) extrusion
  average inclusion diameter and standard deviation: 0.019+0.019 mm and 0.019±0.019 mm
[2]; cold extrusion (−5° C.)
  average diameter of latanoprost droplets: 6 μm
[2]; extrusion at room temperature
  average diameter of latanoprost droplets: 19 μm
IOP; about 200 ng of drug remaining on the eye after a drop of Xalatan
  duration of IOP lowering: at least 24 hours
IOP; lowest doses of 12.5 μg/mL QD or 15 μg/mL BID
  IOP reduction relative to that of the 50 μg/mL QD dose: 60-75%
